Patent publication US20150296788A1, “PESTICIDALLY ACTIVE TRICYCLIC PYRIDYL DERIVATIVES” (SYNGENTA PARTICIPATIONS AG, priority 2012, published 2015)

How the values were obtained:
Type in all cases: in vivo
[1] = tested on: Myzus persicae (Green Peach Aphid); experiment: Activity against Myzus persicae (green peach aphid), leaf disc, feeding/residual contact, preventive; details: foliar, 144 h, sunflower leaf discs sprayed, mixed-age aphid population, 6 days incubation
Procedure: Activity Against Myzus persicae (Green Peach Aphid)
(Mixed Population, Feeding/Residual Contact Activity, Preventive)
(§1) Sunflower leaf discs were placed on agar in a 24-well microtiter plate and sprayed with test solutions. After drying, the leaf discs were infested with an aphid population of mixed ages. After an incubation period of 6 days, samples were checked for mortality.

[2] = tested on: Frankliniella occidentalis (Western Flower Thrips); experiment: Activity against Frankliniella occidentalis (western flower thrips), leaf disc, feeding/residual contact, preventative; details: foliar, 168 h, sunflower leaf discs sprayed, mixed-age population, 7 DAT
Procedure: Activity Against Frankliniella occidentalis (Western Flower Thrips)
(Mixed Population, Feeding/Residual Contact Activity, Preventative)
as §1, with “are” for “were”, “a Frankliniella” for “an aphid”, “7 DAT,” for “6 days,”, “mortality and special effects (e.g. phytotoxicity).” for “mortality.”

[3] = tested on: Bemisia tabaci (Cotton White Fly); experiment: Activity against Bemisia tabaci (cotton white fly), leaf disc, feeding/residual contact, preventive; details: foliar, 144 h, cotton leaf discs sprayed, 12 to 18 adults, 6 days after infestation
Procedure: Activity Against Bemisia tabaci (Cotton White Fly)
(Feeding/Residual Contact Activity, Preventive)
Cotton leaf discs were placed on agar in a 24-well microtiter plate and sprayed with test solutions. After drying, the leaf discs were infested with 12 to 18 adults. After an incubation period of 6 days after infestation, samples were checked for mortality and special effects (e.g. phytotoxicity).

SMILES | mortality at 200 ppm [1] [%] | mortality at 200 ppm [2] [%] | mortality at 200 ppm [3] [%]
CN1c2ccc(-c3cnn(-c4cccnc4)c3)nc2-c2ncncc2S1(=O)=O [Compound 1.003, 9-methyl-6-(1-pyridin-3-yl-1H-pyrazol-4-yl)-9H-10-thia-2,4,5,9-tetraaza-phenanthrene 10,10-dioxide] | > 80 | > 80 | 
c1cncc(-n2cc(-c3ccc4c(n3)-c3n[nH]cc3CC4)cn2)c1 [Compound 1.002, 8-[1-(3-pyridyl)pyrazol-4-yl]-4,5-dihydro-2H-pyrazolo[4,3h]quinoline] | > 80 |  | > 80
c1cncc(-n2cc(-c3ccc4c(n3)-c3ncncc3CC4)cn2)c1 [Compound 1.001, 9-[1-(3-pyridyl)pyrazol-4-yl]-5,6-dihydropyrido[3,2-h]quinazoline] | > 80 |  | > 80
CN1c2ccc(-c3cnn(-c4cccnc4)c3)nc2-c2[nH]ncc2S1(=O)=O [Compound 1.004, 5-methyl-8-(1-pyridin-3-yl-1H-pyrazol-4-yl)-1,5-dihydro-4-thia-1,2,5,9-tetraaza-cyclopenta[a]naphthalene 4,4-dioxide] | > 80 | > 80 | > 80
